{"source": "patent US20040204488A1", "about": "“S-[2-[(1-Iminoethyl)amino]ethyl]-2-methyl-L-cysteine maleate crystalline salt” (priority 2003, published 2004)", "type_in_all_cases": "physicochemical", "key": {"physchem [1]": {"assay": "physchem", "details": "pKa of amidine ion", "text": "The parent S-[2-[(1-Iminoethyl)amino]ethyl]-2-methyl-L-cysteine molecule has 3 ionizable groups and can exist in 4 ionization states.\nAt low pH, the molecule exists as a +2 charged free acid, with the carboxylic acid, amine and amidine moieties protonated. This is the ionization state for the dihydrochloride salt. The initial lots of S-[2-[(1-Iminoethyl)amino]ethyl]-2-methyl-L-cysteine (dihydrochloride) contained around 0.3 eq of excess HCl.\nAs the pH is increased, the carboxylic acid group is the first group to deprotonate, and this produces a net charge on the molecule of +1. If the pH increase is generated by addition of sodium hydroxide to S-[2-[(1-Iminoethyl)amino]ethyl]-2-methyl-L-cysteine, the sodium dihydrochloride salt is formed. If the increase in pH is due to removal of chloride ions by anion exchange processing, the product is the monohydrochloride salt with no sodium.\nA positive charge still resides on the amidine, and a negative charge still resides on the carboxyl group. If such material is made by the addition of sodium hydroxide to the dihydrochloride, the resulting product is the monohydrochloro sodium salt, mixed with one equivalent of sodium chloride. The material prepared by the anion exchange resin approach is the free zwitterion.\nFurther increases in pH lead to deprotonation of the amidine ion (pKa ˜12.5). […]"}, "[2]": {"assay": "Pseudo-titration in water with IRA-400(OH) anion exchange resin (pH vs resin added)", "protocol": "60 g of Amberlite IRA400 (OH) resin was prewashed with 4.7 percent (by weight) ammonium hydroxide (50 ml of 28 percent ammonium hydroxide, 250 ml deionized water), followed by extensive washing with deionized water. The final conductivity was 6.1 μS.\n(§1) Cation exchange column cuts containing approximately 0.9 g of S-[2-[(1-Iminoethyl)amino]ethyl]-2-methyl-L-cysteine di-hydrochloride in 142 ml HCl/water solution, were concentrated on a rotary evaporator at 60° C. to an oil. To the oil, diluted to 60 ml with deionized water, was added aliquots of 0.5 g of washed anion exchange resin while stirring. At five minutes after each aliquot of resin was added, the solution pH was measured and a sample removed through a syringe filter. A total of 9 g of anion exchange resin was added. The final pH was 10.8. The resin was removed by filtration and the filtrate was concentrated to an oil by rotary evaporation at 60° C.; no solids formed. The starting material, final filtrate and all intermediate samples were assayed by HPLC and ion chromatography for chloride.\nThe diamond (solid line) is pH and square (dashed line) is S-[2-[(1-Iminoethyl)amino]ethyl]-2-methyl-L-cysteine (percent initial, by ion chromatography). […] The diamond (solid line) is pH and triangle (broken line) is chloride (by ion chromatography).\nThese curves are not true titration curves since samples were withdrawn during the progress of the reaction, and since true equilibrium was not attained before the increments of resin were added. Nevertheless, the graphs of FIG. 2 and FIG. 3 illustrate the expected trends. As resin is added to the S-[2-[(1-Iminoethyl)amino]ethyl]-2-methyl-L-cysteine solution the pH rises with change in slope around pH's of 2, 9 and 11. The pH's of slower rise are representative of the pK's of the carboxylic acid, amine and amidine functional groups, respectively. Above a pH of 10, the S-[2-[(1-Iminoethyl)amino]ethyl]-2-methyl-L-cysteine concentration in solution decreases. At this point, the S-[2-[(1-Iminoethyl)amino]ethyl]-2-methyl-L-cysteine is gaining a net negative charge and is binding to the resin. […]"}, "[3]": {"assay": "Solution stability of anion-exchange titration samples by HPLC (Example 8)", "details": "fractions of resin titration", "protocol": "as §1\n3.3 g a sample containing about 1 g of S-[2-[(1-Iminoethyl)amino]ethyl]-2-methyl-L-cysteine di-hydrochloride was diluted to 20 g. Aliquots of prewashed Amberlite IRA400 (OH) resin was added to the solution and samples were periodically withdrawn through a syringe filter. […] The starting materials, intermediate samples and final filtrate were analyzed. […] Samples were drawn at pH of 8.13 and 1.63 and analyzed by HPLC.\nIn the repeat of the above experiment, the resulting samples were analyzed by HPLC. […]"}, "Moisture sorption": {"assay": "Moisture sorption", "details": "90% R.H. and 25° C.", "text": "The novel salt is characterized by some or all of the following physical measurements: elemental analysis (such as by combustion analysis), melting point and heat of fusion (differential scanning calorimetry and thermogravimetric analysis), refractive indices (polarized light microscopy), x-ray powder diffraction pattern, moisture sorption (for example, DVS moisture balance) and vibrational signature (Raman spectrum).\nFIG. 12 is a plot of a moisture sorption study of S-[2-[(1-Iminoethyl)amino]ethyl]-2-methyl-L-cysteine maleate."}, "physchem [4]": {"assay": "physchem", "details": "water"}}}
{"smiles": "CC(=N)NCCSC[C@](C)(N)C(=O)O", "note": "[S-[2-[(1-Iminoethyl)amino]ethyl]-2-methyl-L-cysteine]", "values": [{"measurement": "pKa", "setting": "physchem [1]", "value": "~12.5"}, {"measurement": "pH of slower rise representative of pK of amidine group", "setting": "[2]", "value": "~11"}, {"measurement": "pH of slower rise representative of pK of amine group", "setting": "[2]", "value": "~9"}, {"measurement": "pH of slower rise representative of pK of carboxylic acid group", "setting": "[2]", "value": "~2"}, {"measurement": "degradation of titration fractions by HPLC", "setting": "[3]", "value": "no degradation"}]}
{"smiles": "CC(=N)NCCSC[C@](C)(N)C(=O)O.O=C(O)/C=C\\C(=O)O", "note": "[S-[2-[(1-Iminoethyl)amino]ethyl]-2-methyl-L-cysteine maleate]", "values": [{"measurement": "water absorbed by weight", "setting": "Moisture sorption", "value": "less than one percent"}, {"measurement": "solubility", "setting": "physchem [4]", "value": "> 230", "unit": "mg/mL"}]}
